For experiment [1], the species on record is Cavia porcellus. The experiment is described as follows: Relative potency in guinea pig ileum assay. It is filed as functional.
The species named for experiment [2] is Cavia porcellus. The experiment is described as follows: ED50 represents the concentration of the agonist in the organ bath corresponding to 50% of the maximal measured spasmogenic effect. It is filed as functional.

Structures are written as SMILES. Residues, ends and D or L forms follow the SMILES beside them. A value given as a limit tells only on which side of the number the result lay.

On to `CSCC[C@@H](NC(=O)[C@H](CC(C)C)NC(=O)CC(=O)N[C@H](Cc1ccccc1)NC(=O)[C@@H](Cc1ccccc1)NC(=O)[C@@H]1CCC(=O)N1)C(N)=O`, for which the Relative potency in the experiment filed under Cavia porcellus [1] came to 22. The compound further had an ED50 in the experiment filed under Cavia porcellus [2] of 0.9 nM. Turning to `CSCC[C@H](NC(=O)[C@H](CC(C)C)NC(=O)CNC(=O)[C@H](Cc1ccccc1)NC(=O)[C@@H](Cc1ccccc1)C(=O)N[C@@H]1CCC(=O)N1)C(N)=O` (HELM PEPTIDE1{[O=C1CC[C@@H](NC(=O)[C@H](Cc2ccccc2)C(=O)[*:2])N1].F.G.L.M.[am]}$$$$V2.0), the Relative potency in the experiment filed under Cavia porcellus [1] is on record as under 0.01.

For the origin of these results see ChEMBL document CHEMBL1122466, “Synthesis of partially modified retro-inverso substance P analogues and their biological activity” (1983).
